The values that follow come from the Kinase Knowledgebase extract (Sharma et al. 2016).

A word on the Ki: it is the dissociation constant of the complex between target and ligand, obtained from inhibition or displacement.

Structures are written as SMILES.

This assay addresses ROCK1;ROCK2 (UniProt O75116). Description: Inhibition of ROCK Kinase Activity.

Sequence of ROCK1;ROCK2 (O75116 whole entry, looked up): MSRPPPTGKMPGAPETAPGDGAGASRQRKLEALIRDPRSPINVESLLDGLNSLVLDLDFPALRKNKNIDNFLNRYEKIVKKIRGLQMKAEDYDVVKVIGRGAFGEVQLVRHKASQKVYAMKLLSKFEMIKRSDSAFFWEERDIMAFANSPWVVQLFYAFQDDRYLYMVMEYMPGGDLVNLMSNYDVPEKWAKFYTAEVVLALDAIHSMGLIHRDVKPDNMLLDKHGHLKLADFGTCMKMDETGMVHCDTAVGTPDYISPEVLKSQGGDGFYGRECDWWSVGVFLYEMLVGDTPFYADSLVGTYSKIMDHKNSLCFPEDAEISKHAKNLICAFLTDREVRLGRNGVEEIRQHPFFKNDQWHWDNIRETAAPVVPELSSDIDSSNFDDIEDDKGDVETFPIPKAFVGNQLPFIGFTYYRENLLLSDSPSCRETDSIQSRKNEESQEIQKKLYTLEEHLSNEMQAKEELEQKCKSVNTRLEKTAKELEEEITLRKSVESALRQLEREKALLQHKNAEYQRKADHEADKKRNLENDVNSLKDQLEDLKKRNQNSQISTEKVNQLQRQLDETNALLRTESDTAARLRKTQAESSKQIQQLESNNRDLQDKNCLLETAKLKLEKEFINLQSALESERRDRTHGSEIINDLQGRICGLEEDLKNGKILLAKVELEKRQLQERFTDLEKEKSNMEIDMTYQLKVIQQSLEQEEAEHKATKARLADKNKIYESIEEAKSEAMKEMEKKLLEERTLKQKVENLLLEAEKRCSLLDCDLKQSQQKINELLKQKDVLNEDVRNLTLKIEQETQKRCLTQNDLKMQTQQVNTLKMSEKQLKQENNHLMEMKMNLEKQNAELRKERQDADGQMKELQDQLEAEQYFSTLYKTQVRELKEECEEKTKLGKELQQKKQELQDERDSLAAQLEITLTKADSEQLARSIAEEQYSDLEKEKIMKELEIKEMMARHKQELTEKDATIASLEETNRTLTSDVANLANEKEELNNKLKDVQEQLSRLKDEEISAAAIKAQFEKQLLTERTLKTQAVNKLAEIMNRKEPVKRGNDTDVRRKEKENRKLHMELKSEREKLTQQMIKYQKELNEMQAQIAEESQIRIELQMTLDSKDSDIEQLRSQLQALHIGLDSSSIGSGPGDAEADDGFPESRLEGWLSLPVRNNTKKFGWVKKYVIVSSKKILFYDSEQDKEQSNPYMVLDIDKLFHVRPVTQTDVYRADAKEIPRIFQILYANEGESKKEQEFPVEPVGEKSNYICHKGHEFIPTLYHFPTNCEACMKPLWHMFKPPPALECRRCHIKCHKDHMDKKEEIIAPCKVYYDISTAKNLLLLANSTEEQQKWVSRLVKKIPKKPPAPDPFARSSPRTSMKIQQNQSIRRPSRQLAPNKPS

In turn, `O=C(Cc1cc(F)ccc1F)Nc1ccc2c(c1)C(=O)NC2=O` came in with a Ki of at most 2000 nM.
The result for `O=C(COc1ccccc1)Nc1ccc2c(c1)C(=O)NC2=O` reads at most 2000 nM; that for `O=C(CSc1ccccc1F)Nc1ccc2c(c1)C(=O)NC2=O`, at most 2000 nM; that for `O=C(Cc1ccc(Cl)cc1)Nc1ccc2c(c1)C(=O)NC2=O`, at most 2000 nM.
On to `COc1ccc(CC(=O)Nc2ccc3c(c2)C(=O)NC3=O)cc1`, for which the Ki is at most 2000 nM.
In the case of `O=C(Cc1ccc(F)cc1)Nc1ccc2c(c1)C(=O)NC2=O` it was at most 2000 nM; in that of `O=C(Cc1cccc(F)c1F)Nc1ccc2c(c1)C(=O)NC2=O`, at most 2000 nM.
In the case of `CC(Oc1ccccc1)C(=O)Nc1ccc2c(c1)C(=O)NC2=O` (stereo not given) it was at most 2000 nM; in that of `O=C(Cc1cccc(O)c1)Nc1ccc2c(c1)C(=O)NC2=O`, at most 2000 nM.
In the case of `O=C(CSc1ccc(F)cc1F)Nc1ccc2c(c1)C(=O)NC2=O` it was at most 2000 nM; in that of `Cc1ccc(NCC(=O)Nc2ccc3c(c2)C(=O)NC3=O)c(C)c1`, at most 2000 nM.
In turn, `O=C(CSc1ccc(Cl)cc1Cl)Nc1ccc2c(c1)C(=O)NC2=O` displayed a Ki of at most 2000 nM.
In turn, `O=C(Cc1ccc(F)cc1F)Nc1ccc2c(c1)C(=O)NC2=O` gave a Ki of at most 2000 nM.
In the case of `O=C(CSc1ccc(F)c(Cl)c1)Nc1ccc2c(c1)C(=O)NC2=O` it was at most 2000 nM; in that of `O=C(CSc1ccc(F)cc1)Nc1ccc2c(c1)C(=O)NC2=O`, at most 2000 nM; in that of `O=C(CNc1ccc(F)c(Cl)c1)Nc1ccc2c(c1)C(=O)NC2=O`, at most 2000 nM.
In the case of `O=C(Cc1cc(F)cc(F)c1F)Nc1ccc2c(c1)C(=O)NC2=O` it was at most 2000 nM; in that of `O=C(CCc1ccccc1)Nc1ccc2c(c1)C(=O)NC2=O`, at most 2000 nM; in that of `Cc1cccc(NCC(=O)Nc2ccc3c(c2)C(=O)NC3=O)c1`, at most 2000 nM.
The result for `O=C(CSc1cccc(Cl)c1)Nc1ccc2c(c1)C(=O)NC2=O` reads at most 2000 nM; that for `O=C(CSc1cccc(Cl)c1Cl)Nc1ccc2c(c1)C(=O)NC2=O`, at most 2000 nM; that for `Cc1cc(C)cc(SCC(=O)Nc2ccc3c(c2)C(=O)NC3=O)c1`, at most 2000 nM.
`Cc1ccc(SCC(=O)Nc2ccc3c(c2)C(=O)NC3=O)c(C)c1` yielded a Ki of at most 2000 nM.
On to `O=C(CSc1ccccc1Cl)Nc1ccc2c(c1)C(=O)NC2=O`, for which the inhibitory constant (Ki) is at most 2000 nM.
The result for `O=C(CNc1cccc(F)c1)Nc1ccc2c(c1)C(=O)NC2=O` reads at most 2000 nM; that for `O=C(CSc1cccc(Br)c1)Nc1ccc2c(c1)C(=O)NC2=O`, at most 2000 nM; that for `O=C(Cc1ccccc1F)Nc1ccc2c(c1)C(=O)NC2=O`, at most 2000 nM.
In the case of `COc1cccc(OCC(=O)Nc2ccc3c(c2)C(=O)NC3=O)c1` it was at most 2000 nM; in that of `O=C(Cc1ccc(Cl)c(Cl)c1)Nc1ccc2c(c1)C(=O)NC2=O`, at most 2000 nM; in that of `O=C(Cc1cc(Cl)ccc1F)Nc1ccc2c(c1)C(=O)NC2=O`, at most 2000 nM.
Consider `O=C(CSc1cccc(O)c1)Nc1ccc2c(c1)C(=O)NC2=O`, for which the Ki was at most 2000 nM.
`O=C(CNc1cccc(OCc2ccccc2)c1)Nc1ccc2c(c1)C(=O)NC2=O` had a Ki of at most 2000 nM.
In the case of `O=C(Cc1ccc(F)cc1Cl)Nc1ccc2c(c1)C(=O)NC2=O` it was at most 2000 nM; in that of `COc1cccc(CC(=O)Nc2ccc3c(c2)C(=O)NC3=O)c1`, at most 2000 nM.
In the case of `O=C(CNc1cccc2[nH]ccc12)Nc1ccc2c(c1)C(=O)NC2=O` it was at most 2000 nM; in that of `O=C(CSc1cccc2ccccc12)Nc1ccc2c(c1)C(=O)NC2=O`, at most 2000 nM; in that of `O=C(Cc1cccc(Cl)c1)Nc1ccc2c(c1)C(=O)NC2=O`, at most 2000 nM.
The result for `O=C(CSc1ccccc1C(F)(F)F)Nc1ccc2c(c1)C(=O)NC2=O` reads at most 2000 nM; that for `O=C(Cc1cc2c(cc1Cl)OCO2)Nc1ccc2c(c1)C(=O)NC2=O`, at most 2000 nM.
As to `O=C(Cc1cccc(C(F)(F)F)c1F)Nc1ccc2c(c1)C(=O)NC2=O`, the Ki was at most 2000 nM.
In the case of `COc1ccc(NCC(=O)Nc2ccc3c(c2)C(=O)NC3=O)cc1Cl` it was at most 2000 nM; in that of `O=C(CSc1ccc(Cl)c(Cl)c1)Nc1ccc2c(c1)C(=O)NC2=O`, at most 2000 nM.
The result for `O=C(COc1ccc(Cl)cc1)Nc1ccc2c(c1)C(=O)NC2=O` reads at most 2000 nM; that for `Cc1ccc(SCC(=O)Nc2ccc3c(c2)C(=O)NC3=O)cc1`, at most 2000 nM.
In the case of `O=C(Cc1cccc(F)c1)Nc1ccc2c(c1)C(=O)NC2=O`, the Ki was at most 2000 nM.
Regarding `O=C(Cc1cccc(C(F)(F)F)c1)Nc1ccc2c(c1)C(=O)NC2=O`, the inhibition constant (Ki) is at most 2000 nM.
In the case of `Cc1ccc(OCC(=O)Nc2ccc3c(c2)C(=O)NC3=O)cc1` it was at most 2000 nM.
The result for `O=C(Cc1ccc2c(c1)OCO2)Nc1ccc2c(c1)C(=O)NC2=O` reads at most 2000 nM; that for `O=C(Cc1cc(F)c(Cl)cc1Cl)Nc1ccc2c(c1)C(=O)NC2=O`, at most 2000 nM; that for `O=C(CNc1cccc2c1CCCC2)Nc1ccc2c(c1)C(=O)NC2=O`, at most 2000 nM.
In the case of `O=C(Cc1ccccc1Cl)Nc1ccc2c(c1)C(=O)NC2=O` it was at most 2000 nM.
On to `COc1cccc(NCC(=O)Nc2ccc3c(c2)C(=O)NC3=O)c1`, for which the Ki was at most 2000 nM.
In the case of `O=C(CSc1ccccc1)Nc1ccc2c(c1)C(=O)NC2=O` it was at most 2000 nM; in that of `Cc1ccccc1NCC(=O)Nc1ccc2c(c1)C(=O)NC2=O`, at most 2000 nM.
With `O=C(CNc1cccc(Cl)c1)Nc1ccc2c(c1)C(=O)NC2=O`, the Ki was at most 2000 nM.
